Data reported in ChEMBL document CHEMBL1821665, “Structure-based design and optimization of potent renin inhibitors on 5- or 7-azaindole-scaffolds” (Bioorg Med Chem Lett, 2011).

Key:
Renin [1] = molecular target: T1, Renin (Homo sapiens, UniProt P00797); experiment: Inhibition of recombinant human renin using Dabcyl-gamma-Abu-Ile-His-Pro-Phe-His-Leu-Val-Ile-His-Thr-EDANS as substrate after 2 hrs by spectrofluorometry
T1 sequence (P00797 whole entry): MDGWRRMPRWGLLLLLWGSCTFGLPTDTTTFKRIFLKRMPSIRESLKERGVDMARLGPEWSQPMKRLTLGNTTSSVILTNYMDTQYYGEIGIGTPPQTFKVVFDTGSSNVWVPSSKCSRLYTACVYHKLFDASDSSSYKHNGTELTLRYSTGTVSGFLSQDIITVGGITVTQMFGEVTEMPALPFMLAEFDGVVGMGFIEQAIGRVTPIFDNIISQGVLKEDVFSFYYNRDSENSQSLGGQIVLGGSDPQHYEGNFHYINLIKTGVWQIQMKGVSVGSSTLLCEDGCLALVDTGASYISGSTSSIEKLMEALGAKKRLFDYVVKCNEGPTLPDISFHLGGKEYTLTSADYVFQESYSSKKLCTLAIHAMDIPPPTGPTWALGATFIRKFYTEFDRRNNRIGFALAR

Renin [2] = molecular target: T1, Renin; experiment: Inhibition of recombinant human renin using Dabcyl-gamma-Abu-Ile-His-Pro-Phe-His-Leu-Val-Ile-His-Thr-EDANS as substrate preincubated for 30 mins followed by 30 mins incubation in human plasma by spectrofluorometry
Renin [3] = molecular target: T1, Renin; experiment: Inhibition of recombinant human renin using Dabcyl-gamma-Abu-Ile-His-Pro-Phe-His-Leu-Val-Ile-His-Thr-EDANS as substrate preincubated for 30 mins followed by 30 mins incubation in mouse C57BL/6 plasma by spectrofluorometry
[4] = Apparent permeability from apical to basolateral side of human Caco2/TC7 cells at 20 uM after 2 hrs in presence of 0.5 to 5% BSA at pH 6.5 to 7.4; assay type: ADME, cell-based; conditions: Caco-2, pH 6.5

SMILES	IC50 (Renin [1])	also measured
CCCc1ccnc2c1c(C(=O)N1CCNCC1)c(Cc1cccc(F)c1C)n2-c1ccccc1	218 nM	
O=C(c1c(Cc2ccccc2)n(-c2ccccc2)c2ccncc12)N1CCNCC1	3400 nM	
Cc1c(F)cc(F)cc1Oc1c(C(=O)N2CCNCC2)c2cccnc2n1-c1ccccc1	504 nM	
Cc1ccc(F)cc1Oc1c(C(=O)N2CCNCC2)c2cc(O)cnc2n1-c1ccccc1	6 nM	IC50 (Renin [2]): 189 nM; IC50 (Renin [3]): 57 nM; Papp A→B at 2 h, 20 µM [4]: 0.45 ×10⁻⁶ cm/s
O=C(c1c(Oc2ccccc2)n(-c2ccccc2)c2ncccc12)N1CCNCC1	1830 nM	
Cc1c(F)cccc1Cc1c(C(=O)N2CCNCC2)c2cnccc2n1-c1ccccc1	8 nM	IC50 (Renin [2]): 200 nM; IC50 (Renin [3]): 410 nM; Papp A→B at 2 h, 20 µM [4]: 0.64 ×10⁻⁶ cm/s
COc1cc2c(cn1)c(C(=O)N1CCNCC1)c(Cc1cccc(F)c1C)n2-c1ccccc1	6 nM	IC50 (Renin [2]): 328 nM; Papp A→B at 2 h, 20 µM [4]: 2.2 ×10⁻⁶ cm/s
O=C(c1c(Cc2ccccc2)n(-c2ccccc2)c2ncccc12)N1CCNCC1	6410 nM	
Cc1ccc(F)cc1Oc1c(C(=O)N2CCNCC2)c2cnccc2n1-c1ccccc1	123 nM	
Cc1ccc(F)cc1Oc1c(C(=O)N2CCN[C@@H](C)C2)c2cnc(O)cc2n1C1CCCCC1	11 nM	
COc1cnc2c(c1)c(C(=O)N1CCNCC1)c(Cc1cccc(F)c1C)n2-c1ccccc1	4670 nM	
COc1cc2c(cn1)c(C(=O)N1CCNCC1)c(Oc1c(C)cccc1C)n2C1CCCCC1	99 nM	
COc1cc2c(cn1)c(C(=O)N1CCNCC1)c(Cc1cccc(F)c1C)n2C1CCCCC1	150 nM	
Cc1cccc(F)c1Oc1c(C(=O)N2CCNCC2)c2cccnc2n1-c1ccccc1	231 nM	
Cc1ccc(F)cc1Oc1c(C(=O)N2CCNCC2)c2cccnc2n1-c1ccccc1	396 nM	
Cc1ccccc1Oc1c(C(=O)N2CCNCC2)c2cnccc2n1-c1ccccc1	847 nM	
COc1cc2c(cn1)c(C(=O)N1CCN[C@@H](CO)C1)c(Cc1cccc(F)c1C)n2C1CCCCC1	3260 nM	
Cc1c(F)cccc1Cc1c(C(=O)N2CCN[C@@H](C)C2)c2c[nH]c(=O)cc2n1C1CCCCC1	154 nM	

SMILES	IC50 (Renin [1])	also measured
Cc1ccccc1Oc1c(C(=O)N2CCNCC2)c2cccnc2n1-c1ccccc1	98 nM	
CCc1ccnc2c1c(C(=O)N1CCNCC1)c(Oc1cc(F)ccc1C)n2-c1ccccc1	1230 nM	
Cc1ccc(F)c(C)c1Oc1c(C(=O)N2CCN[C@@H](C)C2)c2c[nH]c(=O)cc2n1C1CCCCC1	37 nM	
CCCc1ccnc2c1c(C(=O)N1CCNCC1)c(Oc1c(C)cccc1C)n2-c1ccccc1	186 nM	
Cc1c(F)cccc1Oc1c(C(=O)N2CCNCC2)c2cnccc2n1-c1ccccc1	181 nM	
Cc1c(F)cccc1Cc1c(C(=O)N2CCNCC2)c2cnc(O)cc2n1-c1ccccc1	88 nM	
Cc1c(F)cccc1Cc1c(C(=O)N2CCNCC2)c2cc(O)cnc2n1-c1ccccc1	6 nM	IC50 (Renin [2]): 95 nM; IC50 (Renin [3]): 159 nM
COc1cc2c(cn1)c(C(=O)N1CCNCC1)c(Oc1cc(F)ccc1C)n2-c1ccccc1	73 nM	
CCc1ccnc2c1c(C(=O)N1CCNCC1)c(Cc1cccc(F)c1C)n2-c1ccccc1	89 nM	
Cc1ccc(F)c(C)c1Oc1c(C(=O)N2CCNCC2)c2cnc(O)cc2n1C1CCCCC1	98 nM	
Cc1ccccc1Cc1c(C(=O)N2CCNCC2)c2cnccc2n1-c1ccccc1	520 nM	
Cc1ccc(F)cc1Oc1c(C(=O)N2CCNCC2)c2cnc(O)cc2n1-c1ccccc1	24 nM	
COc1ccc2c(C(=O)N3CCNCC3)c(Oc3cc(F)ccc3C)n(-c3ccccc3)c2n1	15 nM	
O=C(c1c(Oc2ccccc2F)n(-c2ccccc2)c2ncccc12)N1CCNCC1	5060 nM	
Cc1c(F)cc(F)cc1Oc1c(C(=O)N2CCNCC2)c2cnccc2n1-c1ccccc1	650 nM	
COC[C@H]1CN(C(=O)c2c(Cc3cccc(F)c3C)n(C3CCCCC3)c3cc(OC)ncc23)CCN1	4090 nM	
Cc1c(F)cccc1Cc1c(C(=O)N2CCNCC2)c2cnc(O)cc2n1C1CCCCC1	116 nM	
